The record followed here is patent publication US20220267380A1, “Glycopeptides Increasing Lipid Synthesis” (TFCHEM, priority 2019, published 2022).

The assay deals with normal human dermal fibroblasts (NHDF). Put plainly: Gene expression in NHDF, full transcriptome analysis with Affymetrix U219 microarray. Format: cell-based. Particulars: NHDF, 7.5 mg/ml, 24 h. Here is the method:
In the present study, the transcriptional effects (modulation of gene expression) of compounds 1, 2, 3 and 4 were evaluated on normal human dermal fibroblasts (NHDF) under basal conditions.
More specifically, the comparative analysis of the different transcriptomic profiles was performed using an Affymetrix GeneAtlas platform and the human “full transcriptome” U219 chip, which includes 36,000 transcripts and variants.
Fibroblasts were seeded in 24-well plates and cultured in culture medium for 24 hours. The medium was then replaced by assay medium and cells were incubated for further 24 hours. The medium was replaced by assay medium containing or not (control) the test compounds at different concentrations and the cells were preincubated for 24 hours. All experimental conditions were performed in triplicate. At the end of incubation, the culture supernatants were removed and the cells were washed in a phosphate buffered saline (PBS) solution and immediately frozen at −80° C.
Before RNA extraction, the replicates were pooled. Total RNA was extracted from each sample using TriPure Isolation Reagent® according to the supplier's instructions. The amount and quality of total RNA were evaluated for all samples using capillary electrophoresis (Bioanalyzer 2100, Agilent technologies). From each RNA, a labeled and amplified anti-sens RNA (aRNA) was obtained using GeneChip 3′IVT PLUS Kit (Affymetrix). For each labeled and amplified aRNA sample the profiles were evaluated before and after fragmentation using capillary electrophoresis (Bioanalyzer 2100, Agilent technologies). Hybridization of fragmented aRNA onto Affymetrix® U219 chip (36,000 transcripts and variants) was performed in the GeneAtlas™ fluidics Affymetrix® hybridization station for 20 hours at 45° C. U219 chip was analyzed using the GeneAtlas™ Imaging station (Affymetrix®—resolution 2 μm) to generate fluorescence intensity data.
Expression Console and Quality controls: data were normalized with the Expression Console (Affymetrix®) software using RMA algorithm. Then a quality control of the labeling and the hybridization was performed. Hybridization and labeling steps successfully passed the quality controls for these experiments.
Data reduction, Excel file description: once normalized with Expression Console, data were transferred into a Microsoft Excel® file in order to go further into data reduction.
Calculation and tools were added in order to rank and sort data, and finally to support data interpretation. Detection thresholds in terms of fold change were defined and applied on normalized data.
Results are considered and presented or commented per gene (and not probe). A probe set is a collection of probes designed to interrogate a given sequence of a gene. For data interpretation, the most important relative expression value obtained with one probe is considered to be representative of the corresponding gene. The file contains the following data: • Relative expression (RE) for each sample, • Fold change calculation, • Gene information.

The mark [1] stands for this setting: relative expression adjusted to detection limit (<20).

Regarding `C[C@H](NC(=O)[C@@H](N)CCCCNCC(F)(F)[C@]1(O)O[C@H](CO)[C@H](O)[C@H](O)[C@H]1O)C(=O)O` [Compound 2], where the note is “vs control”, the “Fold change, APOD” value amounted to 0.50; the “Fold change, DHCR24” value was 2.13; the “Fold change, HACD1” value was 2.01; the “Fold change, NEU1” value was 2.18. Under “vs control”, the “Fold change, SERINC2” value was found to be 2.09; the “Fold change, TM7SF2” value stood at 2.18; the “Fold change, TXNRD1” value came out at 2.07. Besides, the “Fold change, SCD” value (vs control, Affymetrix probe set 11715561_s_at) is recorded as 2.01. In addition, the “Fold change, SCD” value (vs control, Affymetrix probe set 11715562_x_at) was determined as 2.02. The “Fold change, SCD” value (vs control, Affymetrix probe set 11715563_s_at) was 2.07. Moreover, the “Fold change, FADS1” value (vs control, Affymetrix probe set 11752670_a_at) is on record as 2.04. Further, the “Fold change, FADS1” value (vs control, Affymetrix probe set 11755251_x_at) is 2.19. Under setting [1], the “REadj2, APOD” value was found to be 174.26; the “REadj2, DHCR24” value stood at 178.12; the “REadj2, HACD1” value stood at 516.24; the “REadj2, NEU1” value was 495.48. Besides, under setting [1], the “REadj2, SERINC2” value turned out to be 245.33; the “REadj2, TM7SF2” value came out at 88.53; the “REadj2, TXNRD1” value came out at 1384.05. Besides, the “REadj2, SCD” value (relative expression adjusted to detection limit (<20), Affymetrix probe set 11715561_s_at) was 277.57. Further, where the note is “relative expression adjusted to detection limit (<20), Affymetrix probe set 11715562_x_at”, the “REadj2, SCD” value came to 302.56. The “REadj2, SCD” value (relative expression adjusted to detection limit (<20), Affymetrix probe set 11715563_s_at) was 241.64. In addition, under “relative expression adjusted to detection limit (<20), Affymetrix probe set 11752670_a_at”, the “REadj2, FADS1” value came to 1734.26. Moreover, the “REadj2, FADS1” value (relative expression adjusted to detection limit (<20), Affymetrix probe set 11755251_x_at) was found to be 1114.87.
